Test system: subjects undergoing elective abdominal surgery under general anaesthesia
Experiment: Example 2: placebo/active-controlled clinical study of compound 1 injection for postoperative analgesia (flurbiprofen axetil rescue; nausea and vomiting recorded)
Type: in vivo, patients
Protocol: This study was a multicentre, randomised, double-blind, placebo/active-controlled study. About 387 subjects undergoing elective abdominal surgery under general anaesthesia were planned to be enrolled and randomised to three groups: the compound 1 group (129 subjects), the tramadol group (129 subjects), and the placebo group (129 subjects).
After the end of surgery, MOAA/S scores were assessed every 5 ± 1 min. Once the subjects regained consciousness (defined as the first MOAA/S score of 5), the first resting pain intensity assessment was initiated within 5 min [using the numeric rating scale (NRS), where 0-10 represent varying degrees of pain: 0 represents no pain, higher numbers represent more severe pain, and 10 represents the most severe pain]. It was recommended that the interval between two NRS assessments not exceed 30 min. Within 4 h after the end of surgery, subjects who met all inclusion criteria and none of the exclusion criteria were randomised at a 1 : 1 : 1 ratio into the compound 1 group, the tramadol group or the placebo group. It was recommended that randomisation be performed within 10 min after the first NRS score ≥ 4.
After successful randomisation, to prevent the subjects from enduring pain for a long time, the first dose of compound 1 injection (1 µg/kg/dose), tramadol hydrochloride injection (50 mg/dose), or placebo injection was administered to the subjects by the investigator as soon as possible (recommended within 15 min after successful randomisation). The end time of the first postoperative administration of the study drug was recorded as 0 min. At 8 h (± 15 min) and 16 h (± 15 min) after the end of the first administration, a single corresponding dose of the compound 1 injection, tramadol hydrochloride injection, or placebo injection was administered to the subjects, for a total of three administrations.
Resting NRS score assessments were performed in subjects at 15 min ± 5 min, 30 min ± 5 min, 1 h ± 5 min, 2 h ± 15 min, 4 h ± 15 min, 8 h ± 30 min (within 30 min before the second administration of the study drug), 12 h ± 30 min, 16 h ± 30 min (within 30 min before the third administration of the study drug), 20 h ± 30 min, and 24 h ± 1 h after the end of the first administration of the study drug. The NRS score for resting pain refers to the NRS score assessed when the subject is at rest (e.g., sitting or lying still). If the subject was unconscious at a scheduled NRS assessment time point, the score was recorded as follows: if the previous NRS score was ≥ 2, the current NRS score was recorded as 2; if the previous NRS score was < 2, the current NRS score was recorded as the previous score. Meanwhile, it was documented that the subject was unconscious at the time of assessment.
A flurbiprofen axetil injection was administered via intravenous injection for rescue treatment if the subject complained of pain at any time point after the first administration of the study drug, and the resting pain NRS score was ≥ 4. It was recommended that the time from the subject's NRS assessment to actual administration of flurbiprofen axetil injection be ≤ 30 min; an initial intravenous dose of 50 mg be administered, followed by additional doses as needed. It was also recommended that the interval between two rescue treatments be ≥ 3 h and that the interval between rescue medication and study drug administration be ≥ 1 h. However, rescue treatment could be given at any time for severe pain. […] Rescue details (including resting NRS score before rescue, the time of each use of rescue medication, the dosage of rescue medication, etc.) were recorded truthfully.
Prophylactic antiemetic treatment was prohibited during the study. After the first postoperative administration, the investigator administered antiemetic agents based on the occurrence of nausea and vomiting in the subject, and the dosage of the antiemetic agents was recorded. […]

[1] = Example 2, safety analysis set, N = 129, 1 µg/kg/dose, three administrations
[2] = Example 2, listed as compound 1
[3] = compared with tramadol and placebo
[4] = within 0-12 h and 0-24 h after the first postoperative administration, compared with tramadol and placebo
[5] = within 0-24 h, compared with tramadol and placebo

CC(=O)N1CC2(CCN(C(=O)[C@@H](CCCCN)NC(=O)[C@@H](CC(C)C)NC(=O)[C@@H](Cc3ccccc3)NC(=O)[C@H](N)Cc3ccccc3)CC2)C1 [Compound 1, (2R)-N-[(1R)-1-(2-acetyl-2,7-diazaspiro[3.5]nonane-7-carbonyl)-5-amino-pentyl]-2-[[(2R)-2-[[(2R)-2-amino-3-phenyl-propionyl]amino]-3-phenylpropionyl]amino]-4-methyl-pentanamide]
Change in incidence of nausea relative to placebo (Example 2): 50% reduction | Change in incidence of vomiting relative to placebo (Example 2): 47.9% reduction | overall safety and tolerability (Example 2): good overall safety and tolerability | serious adverse events (Example 2): No serious adverse events occurred | Nausea (incidence) [1]: 10.1% | Vomiting (incidence) [1]: 8.5% | Change in incidence of nausea relative to placebo [2]: 50 % reduction | Change in incidence of vomiting relative to placebo [2]: 47.9 % reduction | SPID0-24 h after the first postoperative administration (compared with placebo): superior to that in the placebo group | PID at each time point [3]: comparable to those in the tramadol group and significantly lower than those in the placebo group | SPID0-12 h after the first postoperative administration [3]: comparable to those in the tramadol group and significantly lower than those in the placebo group | duration of analgesia [3]: comparable to those in the tramadol group and significantly longer than those in the placebo group | incidence of decreased thyroid-stimulating hormone [3]: slightly higher than that in the tramadol group and the placebo group | incidences of nausea and vomiting [3]: lower than those in the tramadol group and the placebo group | subject and investigator satisfaction scores for postoperative analgesia [3]: generally comparable to those in the tramadol group and significantly higher than those in the placebo group | time to the first use of rescue analgesic agents [3]: comparable to those in the tramadol group and significantly longer than those in the placebo group | SPID0-24 h after the first postoperative administration (compared with tramadol injection (50 mg/dose)): non-inferior to that in the tramadol injection group | effect on PONV in patients after abdominal surgery (summary of both Phase III studies (Example 2)): preventive and/or alleviating effect on PONV | mean cumulative dosage of rescue analgesic agents [4]: comparable to those in the tramadol group and significantly lower than those in the placebo group | proportion of subjects with NRS scores ≤ 3 [4]: generally comparable to those in the tramadol group and significantly higher than those in the placebo group | cumulative dosage of other antiemetic agents [5]: higher than those in the tramadol group and the placebo group | proportion of subjects using other antiemetic agents [5]: slightly lower than those in the tramadol group and the placebo group | proportion of subjects using tropisetron and the cumulative dosage (within 0-24 h after the first administration, compared with tramadol and placebo): significantly lower than those in the tramadol group and the placebo group | proportion of subjects using rescue analgesic agents (within 0-24 h after the first postoperative administration, compared with tramadol and placebo): comparable to those in the tramadol group and significantly lower than those in the placebo group
